Source: publication PMC12040169 (PLOS Biology, 2025)

Test: in vitro
Conditions: human, hela cells

Row | SMILES | viability at 28.5 h, 10 µM
1 | Nc1nonc1OCC(COc1nonc1N)(COc1nonc1N)COc1nonc1N [CBK011044] | 85.6%
2 | O=P(O)(O)CCCc1ccccc1 [CBK012021] | 80.5%
3 | CC(N)Cc1cn(C)c2ccccc12 (stereo not drawn) [CBK012030C] | 83.8%

Same assay, conditions: human, hela cells, % viability

Row | SMILES | viability at 28.5 h, 10 µM
4 | COc1cc(C(=O)c2ccc(Cl)cc2)cc(Br)c1OCCN1CCOCC1 [CBK010131C] | 96.5%
5 | CCNC(=O)C1=C(C(=O)NCC)N2C(=NC(C)(C)c3ccccc32)S1 [CBK010172] | 102%
6 | CCCCC1(COC(C)=O)OC(=O)Nc2ccc(Br)cc21 (stereo not drawn) [CBK010195] | 91.1%
7 | COc1cc2c(cc1S(N)(=O)=O)C(=O)CCC2 [CBK010234] | 92.2%
8 | Cn1c(SCCN2CCOCC2)nnc1-c1cccs1 [CBK010243] | 89.3%
9 | CCCN1CCN(c2ncc(CNS(=O)(=O)c3ccc(Cl)cc3)cn2)CC1 [CBK010261] | 101%
10 | O=S1(=O)CCCN1c1ccc2[nH]ncc2c1 [CBK010263] | 102%
11 | CCOC(=O)N1COC[C@@H]1C(=O)O [CBK010379] | 81.5%
12 | CC(=O)NC[C@H]1CN(c2ccc(C#N)c(C)c2)C(=O)O1 [CBK010393] | 107%
13 | CCN1CCC2(CC1)Nc1cc(Cl)c(S(N)(=O)=O)cc1S(=O)(=O)N2 [CBK010418C] | 97.7%
14 | CCC(Cc1c[nH]c2ccccc12)NC(=N)N (stereo not drawn) [CBK010430] | 102%
15 | COc1ccc(NS(=O)(=O)c2ccc(C)cc2)cn1 [CBK010484] | 85.8%
16 | COC(=O)C(C)CSc1ccc(C(C)(C)C)cc1 (stereo not drawn) [CBK010499] | 107%
17 | CC(C)(O)Cc1ccccc1C(=O)NC1CCCCCC1 [CBK010502] | 81.7%
18 | CN(C)[C@H]1CCCC[C@@H]1n1c(-c2ccc(Cl)c(Cl)c2)n[nH]c1=O [CBK010566] | 114%
19 | O=c1[nH]nc2n1-c1ccccc1OC2 [CBK010583] | 104%
20 | CNC(=O)Oc1cc(C)c(SC)c(C)c1 [CBK010586] | 77.2%
21 | O=C(c1ccccn1)c1ccccn1 [CBK010601] | 89%
22 | COc1ccc(C2Sc3ccccc3N(CCN(C)C)C(=O)C2OC(C)=O)cc1 (stereo not drawn) [CBK010647] | 98%
23 | NC(=O)CSc1ccccc1 [CBK010649] | 91.2%
24 | CCC(=O)NC1Cc2cccc3c2N(CCC3)C1=O (stereo not drawn) [CBK010667] | 113%
25 | NS(=O)(=O)c1cccc2c1CC1(CC2)OCCO1 [CBK010703] | 84.6%
26 | O=C1OCC(O)=C1C(c1ccccc1)C1CC1 (stereo not drawn) [CBK010731] | 91%
27 | Cc1ncc(C(O)c2ccc(Cl)cc2)c2c1OC(C)(C)OC2 (stereo not drawn) [CBK010749] | 111%

Row | SMILES | viability at 28.5 h, 10 µM
28 | O=C(c1ccco1)c1cnc2ccccn2c1=O [CBK010791] | 109%
29 | Cc1nn(Cc2nnc(-c3cccs3)o2)c(C)c1Br [CBK010809] | 87.7%
30 | COC(=O)C1C2CCN(CC2)C1SCc1cccc(C(F)(F)F)c1 (stereo not drawn) [CBK010829C] | 87.1%
31 | CCC(=O)Oc1ccc(/N=C2/NC(C)(C)O2)cc1 [CBK010922] | 87.6%
32 | N/C(CS(=O)(=O)Cc1ccc(F)cc1)=N/O [CBK010956] | 89.2%
33 | CCCc1cc(=O)n2c(n1)SCOC2 [CBK010967] | 108%
34 | COC(=O)C1CC(O)CC1C(=O)N1CCCC1 (stereo not drawn) [CBK011029] | 89.6%
35 | COc1ccc(-c2c[n+]3ccccc3c(=O)[nH]2)cc1 [CBK011078B] | 93.8%
36 | O=c1cc(NCCCN2CCN(Cc3ccccc3)CC2)c2ccccc2o1 [CBK011079] | 81%
37 | O=S(=O)(Cc1csc(N2CCOCC2)n1)c1ccccn1 [CBK011137] | 90.1%
38 | CC[n+]1c(C(C)(C)C)csc1NCC1CC1 [CBK011154B] | 106%
39 | CCOC(=O)c1ccc(C2=NCCC2)[nH]1 [CBK011191] | 95.1%
40 | O=C(O)c1c[nH]c2ccc(S(=O)(=O)N3CCOCC3)cc12 [CBK011237] | 97.3%
41 | O=C(c1ccc([N+](=O)[O-])cc1)C12CN3CN(CN(C3)C1)C2 [CBK011238] | 87.1%
42 | NC(=S)c1c(Cl)cc(C(F)(F)F)cc1Cl [CBK011349] | 105%
43 | CC(=O)Nc1nc2c3ccccc3n(C(C)=O)c2s1 [CBK011360] | 110%
44 | CC1=CCC2(CC1)COC(C(C)(C)CN(C)C)OC2 (stereo not drawn) [CBK011369] | 91.7%
45 | Fc1ccc(NC(=S)NCC2CC2)c(F)c1 [CBK011398] | 100%
46 | CN1CC(CO)CCC1Cc1c[nH]c2ccccc12 (stereo not drawn) [CBK011468] | 92.4%
47 | CCC1=C(C)C(=O)N(C(=O)NCCc2ccc(S(=O)(=O)NC(=O)NC3CCC(C)CC3)cc2)C1 (stereo not drawn) [CBK011561] | 93.2%
48 | CCCCC[C@H](O)CCC1[C@H](O)C[C@@H]2Cc3c(cccc3OCC(=O)O)C[C@H]12 (stereo partly drawn) [CBK011575] | 98.3%
49 | Nc1nnc(-c2cccc(Cl)c2Cl)c(N)n1 [CBK011590] | 85.8%
50 | NC(=O)CN1CC(O)CC1=O (stereo not drawn) [CBK011649] | 86.1%
51 | CC(C)(C)NCC(O)COc1cccc2c1C[C@H](O)[C@H](O)C2 (stereo partly drawn) [CBK011678] | 102%

Row | SMILES | viability at 28.5 h, 10 µM
52 | CN1C2CCC1CC(OC(c1ccccc1)c1ccccc1)C2 (stereo not drawn) [CBK011710G] | 99.6%
53 | c1ccc(C2CCCNC2)cc1 (stereo not drawn) [CBK011753] | 100%
54 | COc1cnc(C(=O)NCCc2ccc(S(=O)(=O)NC(=O)NC3CCCCC3)cc2)cn1 [CBK011761] | 104%
55 | CC1Cc2cc(C(O)(CCN(C)C)c3ccccc3)ccc2O1 (stereo not drawn) [CBK011764] | 110%
56 | Cn1c(C(=O)NCCc2ccc(S(=O)(=O)NC(=O)NC3CCCCC3)cc2)cc2ccccc21 [CBK011876] | 128%
57 | O=C(NCCc1ccc(S(=O)(=O)NC(=O)NC2CCCCC2)cc1)NC1CCCCC1 [CBK011926] | 88.4%
58 | CN(C)CC(Oc1ccccc1)C(=O)c1ccccc1 (stereo not drawn) [CBK011935C] | 101%
59 | COc1ccc2nc3cc(Cl)ccc3c(NCCO)c2c1 [CBK011939] | 43.8%
60 | CCCOc1ccc(C(=O)C(CN(CC)CC)Oc2ccccc2)cc1 (stereo not drawn) [CBK011944C] | 94.7%
61 | C[N+](C)(C)Cc1ccccc1 [CBK011977I] | 109%
62 | CCN(CC)CC(C)C(O)(c1ccccc1)c1ccccc1 (stereo not drawn) [CBK012065C] | 95%
63 | O=C(Nc1ccccc1C(=O)O)c1ccccc1O [CBK012116] | 89%
64 | N=C(N)NCCCc1c[nH]c2ccccc12 [CBK012139G] | 101%
65 | CCN(CC)CC(C)C(O)(c1ccc(Cl)cc1)c1ccc(Cl)cc1 (stereo not drawn) [CBK012146C] | 103%
66 | CN(C)C(=O)Cc1ccc(-c2ccccc2)cc1 [CBK012162] | 94.2%
67 | Cc1cc2nc(CC(=O)NN)[nH]c2cc1C [CBK012180] | 89.3%
68 | CC1OC(n2ccc(=S)[nH]c2=O)C(O)C1O (stereo not drawn) [CBK012231] | 103%
69 | CC(CNC1CCCC1)C(O)(c1ccccc1)c1ccccc1 (stereo not drawn) [CBK012237C] | 101%
70 | Cc1ccccc1Nc1ccccc1C(=O)O [CBK012249] | 113%
71 | O=C(O)c1ccnc2ccccc12 [CBK012261] | 88.2%
72 | CC(c1ccc(Cl)cc1)N(CCN(C)C)c1ccccn1 (stereo not drawn) [CBK012273F] | 100%
73 | COc1cc(C(=O)NN)cc(OC)n1 [CBK012275] | 83.7%
74 | O=C(O)C(Cc1ccc(O)cc1)c1ccccc1 (stereo not drawn) [CBK012287] | 84.7%
75 | OC1(c2ccccc2)CCNCC1 [CBK012290] | 101%

Row | SMILES | viability at 28.5 h, 10 µM
76 | Cc1ccccc1SCC(C)C(=O)O (stereo not drawn) [CBK012292] | 83%
77 | CC1=C(c2ccc(OC(C)(C)CN3CCCC3)cc2)C(C)CCC1 (stereo not drawn) [CBK012357C] | 86.1%
78 | Oc1ccc(Nc2ccnc3cc(Cl)ccc23)cc1 [CBK012365C] | 93.5%
79 | Cc1nncn1-c1ccc(Cl)cc1C(=O)c1ccccc1Cl [CBK012372] | 101%
80 | O=C(c1ccccc1)c1cc(Cl)ccc1-n1ccnc1 [CBK012383] | 105%
81 | Nc1ncncc1-c1ccc(Cl)cc1 [CBK012407] | 90.9%
82 | CC(C)(Oc1cccc2ccccc12)C(=O)O [CBK012409] | 94.5%
83 | CCOC(=O)Cn1c(C)nc(C)cc1=O [CBK012419] | 103%
84 | Cc1cnoc1-c1cc(Br)cc(Br)c1O [CBK012420] | 104%
85 | COC(=O)c1cc(Cl)c2ccccc2n1 [CBK012428] | 80.4%
86 | Cc1n[nH]c(=S)n1-c1ccc(Cl)cc1 [CBK012457] | 94.5%
87 | O=C(c1ccc(Nc2ccnc3cc(C(F)(F)F)ccc23)cc1)N1CCC(O)(c2cccc(C(F)(F)F)c2)CC1 [CBK012467] | 91.6%
88 | CN(C)[C@H]1CC[C@@H](Cc2ccccc2)C[C@@H]1NC(=O)c1ccc(Cl)c(Cl)c1 [CBK012488] | 97.3%
89 | CC(C)(C)Cc1ccc(CC(=O)O)c(OCc2ccccc2)n1 [CBK012508] | 92.6%
90 | O=C(O)CCCCc1nn(-c2ccc(Cl)c(Cl)c2)c2c1CCC2 [CBK012529] | 97.5%
91 | CC(=O)c1c(C)oc(C)c1C(C)=O [CBK012535] | 88.2%
92 | CN(C)CCCC(O)(c1ccccc1)c1ccccc1 [CBK012599] | 109%
93 | O=P(O)(O)Cc1ccccc1-c1ccccc1 [CBK012659] | 111%
94 | CC(C)Nc1cccnc1N1CCN(C(=O)c2cc3cc(NS(=O)(=O)CCc4ccncc4)ccc3[nH]2)CC1 [CBK012661] | 95.8%
95 | O=c1c(Cl)nc(Cl)c(C2CCCCC2)n1Cc1ccccc1 [CBK012671] | 87.6%
96 | CC(C)(C)Nc1cc(NCCc2ccccc2)nc(N)n1 [CBK012708] | 86.8%
97 | COC(=O)c1cccc(CCC2CC(=O)C=C(O)C2)c1 (stereo not drawn) [CBK012720] | 93.7%
98 | NC(=O)C(NCc1ccccc1)c1ccc(Cl)cc1 (stereo not drawn) [CBK012748] | 84%

Same assay, conditions: human, hela cells, % viability, bulk resorufin, single well

Row | SMILES | viability at 28.5 h, 10 µM
99 | CC(C)N(CCc1cc2ccccc2o1)C(C)C [CBK011518C] | 113%
